Patent US20240158446A1, “CYCLIC COMPOUND HAVING SELECTIVE INHIBITORY ACTION ON KRAS OVER HRAS AND NRAS” (CHUGAI SEIYAKU KABUSHIKI KAISHA, priority 2021, published 2024)
*1 amine or outer side, *2 acyl side, *3 side chain or, on linkers, in order; H or OH if unused. Where a SMILES comes first, the peptide text is derived from it. Bridges are numbered along the chain shown (N, C = ends). [ ]: non-standard residue; d: D form. The star is where a group is joined. hPhe(3,5-F2-4-CF3) = N[C@@H](CCc1cc(F)c(C(F)(F)F)c(F)c1)C(=O)O; NPrPhe(4-CF3) = CCCN[C@@H](Cc1ccc(C(F)(F)F)cc1)C(=O)O; NMeGly(cPent) = CN[C@H](C(=O)O)C1CCCC1; X8 = C[C@@](N[*:1])(C(=O)[*:2])C1CC1; X11 = CCC[C@](C)(N[*:1])C(=O)[*:2]; Nva(3-Et) = CCC(CC)[C@H](N)C(=O)O; αMeF = C[C@](N)(Cc1ccccc1)C(=O)O; NMeD = CN[C@@H](CC(=O)O)C(=O)O; NMeL = CN[C@@H](CC(C)C)C(=O)O; αMeL = CC(C)C[C@](C)(N)C(=O)O; αMeV = CC(C)[C@](C)(N)C(=O)O; αMeS = C[C@](N)(CO)C(=O)O; Morpholide = C1CN(*)CCO1; Ac5c = NC1(C(=O)O)CCCC1; Aze = O=C(O)[C@@H]1CCN1; Sar = CNCC(=O)O; Allyl = C=CC*

What was measured:
[1] = biological target: GDP-bound HRAS wild-type protein (Homo sapiens, UniProt P01112); test: Binding to HRAS by surface plasmon resonance (SPR), Single Cycle Kinetics; details: SPR, GDP-bound HRAS wild-type protein vs GDP-bound KRAS wild-type protein
Sequence of GDP-bound HRAS wild-type protein (P01112 whole entry): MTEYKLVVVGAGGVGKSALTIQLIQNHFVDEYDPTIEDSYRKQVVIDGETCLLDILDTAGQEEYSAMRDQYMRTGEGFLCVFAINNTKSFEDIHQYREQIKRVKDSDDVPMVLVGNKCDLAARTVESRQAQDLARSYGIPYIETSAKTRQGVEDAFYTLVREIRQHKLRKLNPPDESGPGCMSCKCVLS

[2] = tested on: human lung cancer strain NCI-H441;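 note: cell proliferation inhibition after four days measured by CellTiter-Glo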
[3] = biological target: GDP-bound NRAS wild-type protein (Homo sapiens, UniProt P01111); test: Binding to NRAS by surface plasmon resonance (SPR), Single Cycle Kinetics; details: SPR, GDP-bound NRAS wild-type protein vs GDP-bound KRAS wild-type protein
Sequence of GDP-bound NRAS wild-type protein (P01111 whole entry): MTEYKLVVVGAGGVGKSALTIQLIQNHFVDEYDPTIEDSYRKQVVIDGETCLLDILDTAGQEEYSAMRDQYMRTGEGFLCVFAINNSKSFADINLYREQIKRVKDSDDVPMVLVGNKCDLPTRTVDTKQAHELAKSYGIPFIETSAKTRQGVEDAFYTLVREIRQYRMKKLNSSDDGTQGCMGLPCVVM

Row | SMILES | HRAS/KRAS (ratio of KD value with respect to HRAS to KD value with respect to KRAS) [1] | IC50 [2] [nM] | NRAS/KRAS (ratio of KD value with respect to NRAS to KD value with respect to KRAS) [3]
1 | CCO[C@@H]1C[C@H]2C(=O)NC3(CCC3)C(=O)N(C)[C@@H](C3CCCC3)C(=O)N(C)[C@H](C(=O)N(C)C)CC(=O)N(C)[C@@H](CC3CCCC3)C(=O)N[C@@H]([C@@H](C)CC)C(=O)N(C)CC(=O)N(C)[C@H]3CCCCCN(C3=O)[C@@H](Cc3ccc(C(F)(F)F)cc3)C(=O)N(C)CC(=O)N[C@@H](CCc3cc(F)c(C(F)(F)F)c(F)c3)C(=O)N2C1 [PP0670] | B (a compound having 3 or more and less than 10 is denoted as B) | 11.3 | B (a compound having 3 or more and less than 10 is denoted as B)
2 | CCO[C@@H]1C[C@H]2C(=O)NC3(CCC3)C(=O)N(C)[C@@H](C3CCCC3)C(=O)N(C)[C@H](C(=O)N(C)C)CC(=O)N(C)[C@@H](Cc3ccccc3)C(=O)N[C@@H]([C@@H](C)CC)C(=O)N(C)CC(=O)N(C)[C@H]3CCCCCN(C3=O)[C@@H](Cc3ccc(C(F)(F)F)cc3)C(=O)N(C)CC(=O)N[C@@H](CCc3cc(F)c(C(F)(F)F)c(F)c3)C(=O)N2C1 [PP0672] | B (a compound having 3 or more and less than 10 is denoted as B) | 19.7 | B (a compound having 3 or more and less than 10 is denoted as B)
3 | CCO[C@@H]1C[C@H]2C(=O)NC3(CCC3)C(=O)N(C)[C@@H](C3CCCC3)C(=O)N(C)[C@H](C(=O)N3CCOCC3)CC(=O)N(C)[C@@H](Cc3ccccc3)C(=O)N[C@@H]([C@@H](C)CC)C(=O)N(C)CC(=O)N(C)[C@H]3CCCCCN(C3=O)[C@@H](Cc3ccc(C(F)(F)F)cc3)C(=O)N(C)CC(=O)N[C@@H](CCc3cc(F)c(C(F)(F)F)c(F)c3)C(=O)N2C1 [PP0687] | B (a compound having 3 or more and less than 10 is denoted as B) | 44.1 | B (a compound having 3 or more and less than 10 is denoted as B)
4 | CCO[C@@H]1C[C@H]2C(=O)NC3(CCC3)C(=O)N(C)[C@@H](C3CCCC3)C(=O)N(C)[C@H](C(=O)N3CCOCC3)CC(=O)N(C)[C@@H](Cc3cccnc3)C(=O)N[C@@H]([C@@H](C)CC)C(=O)N(C)CC(=O)N(C)[C@H]3CCCCN(C3=O)[C@@H](Cc3ccc(C(F)(F)F)cc3)C(=O)N(C)CC(=O)N[C@@H](CCc3cc(F)c(C(F)(F)F)c(F)c3)C(=O)N2C1 [PP0718] | B (a compound having 3 or more and less than 10 is denoted as B) | 42.3 | C (A compound having a KD ratio of 0.1 or more and less than 3 is denoted as C)
5 | C=CCOC[C@]1(C)NC(=O)[C@@H]2CCCN2C(=O)[C@H](CCc2cc(F)c(C(F)(F)F)c(F)c2)NC(=O)CN(C)C(=O)[C@H](Cc2ccc(C(F)(F)F)cc2)N(CCC)C(=O)CN(C)C(=O)CN(C)C(=O)[C@H]([C@@H](C)CC)NC(=O)[C@H](CC(C)C)N(C)C(=O)C[C@@H](C(=O)N2CCOCC2)N(C)C(=O)[C@H](C2CCCC2)N(C)C1=O [PP0763] ([NMeL]I[Sar][Sar][NPrPhe(4-CF3)][Sar][hPhe(3,5-F2-4-CF3)]P[αMeS](Allyl)[NMeGly(cPent)][NMeD]-Morpholide; lactam N-11) | B (a compound having 3 or more and less than 10 is denoted as B) | 83 | B (a compound having 3 or more and less than 10 is denoted as B)
6 | CCCN1C(=O)CN(C)C(=O)[C@@H]2CCN2C(=O)[C@H]([C@@H](C)CC)NC(=O)[C@H](CC(C)C)N(C)C(=O)C[C@@H](C(=O)N2CCOCC2)N(C)C(=O)[C@H](C2CCCC2)N(C)C(=O)[C@](C)(C2CC2)NC(=O)[C@@H]2CCCN2C(=O)[C@H](CCc2cc(F)c(C(F)(F)F)c(F)c2)NC(=O)CN(C)C(=O)[C@@H]1Cc1ccc(C(F)(F)F)cc1 [PP0772] ([NMeL]I[Aze][Sar][NPrPhe(4-CF3)][Sar][hPhe(3,5-F2-4-CF3)]P[X8][NMeGly(cPent)][NMeD]-Morpholide; lactam N-11) | B (a compound having 3 or more and less than 10 is denoted as B) | 434 | B (a compound having 3 or more and less than 10 is denoted as B)
7 | CCCN1C(=O)CN(C)C(=O)[C@@H]2CCN2C(=O)[C@H]([C@@H](C)CC)NC(=O)[C@H](CC(C)C)N(C)C(=O)C[C@@H](C(=O)N2CCOCC2)N(C)C(=O)[C@H](C2CCCC2)N(C)C(=O)[C@](C)(C(C)C)NC(=O)[C@@H]2CCCN2C(=O)[C@H](CCc2cc(F)c(C(F)(F)F)c(F)c2)NC(=O)CN(C)C(=O)[C@@H]1Cc1ccc(C(F)(F)F)cc1 [PP0773] ([NMeL]I[Aze][Sar][NPrPhe(4-CF3)][Sar][hPhe(3,5-F2-4-CF3)]P[αMeV][NMeGly(cPent)][NMeD]-Morpholide; lactam N-11) | B (a compound having 3 or more and less than 10 is denoted as B) | 170 | B (a compound having 3 or more and less than 10 is denoted as B)
8 | CCCN1C(=O)CN(C)C(=O)[C@@H]2CCN2C(=O)[C@H]([C@@H](C)CC)NC(=O)[C@H](CC(C)C)N(C)C(=O)C[C@@H](C(=O)N2CCOCC2)N(C)C(=O)[C@H](C2CCCC2)N(C)C(=O)[C@](C)(CCC)NC(=O)[C@@H]2CCCN2C(=O)[C@H](CCc2cc(F)c(C(F)(F)F)c(F)c2)NC(=O)CN(C)C(=O)[C@@H]1Cc1ccc(C(F)(F)F)cc1 [PP0775] ([NMeL]I[Aze][Sar][NPrPhe(4-CF3)][Sar][hPhe(3,5-F2-4-CF3)]P[X11][NMeGly(cPent)][NMeD]-Morpholide; lactam N-11) | B (a compound having 3 or more and less than 10 is denoted as B) | 417 | B (a compound having 3 or more and less than 10 is denoted as B)
9 | CCCN1C(=O)CN(C)C(=O)[C@@H]2CCN2C(=O)[C@H]([C@@H](C)CC)NC(=O)[C@H](CC(C)C)N(C)C(=O)C[C@@H](C(=O)N2CCOCC2)N(C)C(=O)[C@H](C2CCCC2)N(C)C(=O)[C@](C)(CC(C)C)NC(=O)[C@@H]2CCCN2C(=O)[C@H](CCc2cc(F)c(C(F)(F)F)c(F)c2)NC(=O)CN(C)C(=O)[C@@H]1Cc1ccc(C(F)(F)F)cc1 [PP0776] ([NMeL]I[Aze][Sar][NPrPhe(4-CF3)][Sar][hPhe(3,5-F2-4-CF3)]P[αMeL][NMeGly(cPent)][NMeD]-Morpholide; lactam N-11) | B (a compound having 3 or more and less than 10 is denoted as B) | 591 | B (a compound having 3 or more and less than 10 is denoted as B)
10 | CCCN1C(=O)CN(C)C(=O)[C@@H]2CCN2C(=O)[C@H]([C@@H](C)CC)NC(=O)[C@H](CC(C)C)N(C)C(=O)C[C@@H](C(=O)N2CCOCC2)N(C)C(=O)[C@H](C2CCCC2)N(C)C(=O)[C@](C)(Cc2ccccc2)NC(=O)[C@@H]2CCCN2C(=O)[C@H](CCc2cc(F)c(C(F)(F)F)c(F)c2)NC(=O)CN(C)C(=O)[C@@H]1Cc1ccc(C(F)(F)F)cc1 [PP0778] ([NMeL]I[Aze][Sar][NPrPhe(4-CF3)][Sar][hPhe(3,5-F2-4-CF3)]P[αMeF][NMeGly(cPent)][NMeD]-Morpholide; lactam N-11) | B (a compound having 3 or more and less than 10 is denoted as B) | 546 | B (a compound having 3 or more and less than 10 is denoted as B)
11 | CCCN1C(=O)CN(C)C(=O)[C@@H]2CCN2C(=O)[C@H]([C@@H](C)CC)NC(=O)[C@H](CC(C)C)N(C)C(=O)C[C@@H](C(=O)N2CCOCC2)N(C)C(=O)[C@H](C2CCCC2)N(C)C(=O)[C@](C)(COC)NC(=O)[C@@H]2CCCN2C(=O)[C@H](CCc2cc(F)c(C(F)(F)F)c(F)c2)NC(=O)CN(C)C(=O)[C@@H]1Cc1ccc(C(F)(F)F)cc1 [PP0779] ([NMeL]I[Aze][Sar][NPrPhe(4-CF3)][Sar][hPhe(3,5-F2-4-CF3)]P[αMeS](Me)[NMeGly(cPent)][NMeD]-Morpholide; lactam N-11) | B (a compound having 3 or more and less than 10 is denoted as B) | 364 | B (a compound having 3 or more and less than 10 is denoted as B)
12 | C=CCOC[C@]1(C)NC(=O)[C@@H]2CCCN2C(=O)[C@H](CCc2cc(F)c(C(F)(F)F)c(F)c2)NC(=O)CN(C)C(=O)[C@H](Cc2ccc(C(F)(F)F)cc2)N(CCC)C(=O)CN(C)C(=O)[C@@H]2CCN2C(=O)[C@H]([C@@H](C)CC)NC(=O)[C@H](CC(C)C)N(C)C(=O)C[C@@H](C(=O)N2CCOCC2)N(C)C(=O)[C@H](C2CCCC2)N(C)C1=O [PP0780] ([NMeL]I[Aze][Sar][NPrPhe(4-CF3)][Sar][hPhe(3,5-F2-4-CF3)]P[αMeS](Allyl)[NMeGly(cPent)][NMeD]-Morpholide; lactam N-11) | B (a compound having 3 or more and less than 10 is denoted as B) | 527 | B (a compound having 3 or more and less than 10 is denoted as B)
13 | CCCN1C(=O)CN(C)C(=O)[C@@H]2CCN2C(=O)[C@H](C(CC)CC)NC(=O)[C@H](CC(C)C)N(C)C(=O)C[C@@H](C(=O)N2CCOCC2)N(C)C(=O)[C@H](C2CCCC2)N(C)C(=O)C2(CCCC2)NC(=O)[C@@H]2CCCN2C(=O)[C@H](CCc2cc(F)c(C(F)(F)F)c(F)c2)NC(=O)CN(C)C(=O)[C@@H]1Cc1ccc(C(F)(F)F)cc1 [PP0785] ([NMeL][Nva(3-Et)][Aze][Sar][NPrPhe(4-CF3)][Sar][hPhe(3,5-F2-4-CF3)]P[Ac5c][NMeGly(cPent)][NMeD]-Morpholide; lactam N-11) | B (a compound having 3 or more and less than 10 is denoted as B) | 324 | B (a compound having 3 or more and less than 10 is denoted as B)
